In patent publication US9408813B2, “Small-molecule inhibitors of dengue virus proteases” (THE BOARD OF REGENTS OF THE UNIVERSITY OF TEXAS SYSTEM, priority 2013, dated 2016):
pKi: −log10 of the molar value. Where two headings read alike, the source gives them in different places.

Target: T1, DENV NS2B-NS3 protease (Dengue virus type 2, UniProt P29990)
T1 construct: plasmid construct CF40-Gly-NS3pro185; made in house; host or cells: E. coli
Experiment: NS2B-NS3 protease steady-state kinetic inhibition assay (Boc-GRR-AMC substrate, Dynafit global fit)
Assay type: biochemical, DEN2V (dengue virus serotype 2)
Conditions: 100 nM NS2B-NS3, cleavage buffer pH 9.5, 25° C., two inhibitor concentrations
Description: The DEN2V protease (plasmid construct CF40-Gly-NS3pro185 (Li et al., The Journal of Biological Chemistry, 280, 28766-28774, 2005)) was expressed in E. coli largely following the previously described protocol (Li et al., The Journal of Biological Chemistry, 280, 28766-28774, 2005), although cell growth was continued for 6 hrs at 25° C. following addition of 0.4 mM IPTG (isopropyl-D-thiogalactopyranoside). Purification was as described previously (Li et al., The Journal of Biological Chemistry, 280, 28766-28774, 2005) using metal affinity chromatography. Purified, concentrated NS2B-NS3pro was stored at −80° C. in cleavage buffer (200 mM Tris pH 9.5, 20% glycerol). The activity of the dengue protease was not impacted by a freeze/thaw cycle (data not shown).
Small molecules identified by virtual screening as potential DEN2V protease inhibitors were tested for inhibition activity using NS2B-NS3 protease steady-state kinetic assays as described previously (Li et al., The Journal of Biological Chemistry, 280, 28766-28774, 2005). Briefly, compounds identified in virtual screening experiments were received from established chemical vendors and tested for solubility at 10 mM in DMSO and upon 100-fold dilution from DMSO into cleavage buffer (i.e., 100 μM final compound concentration in 1% DMSO). […] Sequential 10-fold serial dilutions were used to determine the limits of solubility in cleavage buffer as necessary.
Preliminary single-point inhibition assays (Li et al., The Journal of Biological Chemistry, 280, 28766-28774, 2005) were used to check the inhibition activity of compounds using 100 nM NS2B-NS3 and 100 μM substrate Boc-GRR-AMC in cleavage buffer for 30 minutes at 25° C. Fluorescence measurements (lem=465 nm, lex=380 nm) were performed in duplicate on a Fluorolog FL3-22 spectrofluorometer (Horiba Jobin Yvon) and corrected for compound absorption and emission. […] Two inhibitor concentrations were tested. Fluorescence measurements were recorded at 5 minutes intervals from 0 to 30 minutes; fluorescence intensities were converted to AMC product concentrations using calibration curves established with each compound concentration. Each kinetic study was performed in duplicate, and all experiments were repeated three times to ensure all measured parameters were reproducible in independent experiments. Initial velocities at each substrate concentration were calculated from linear curve fits of AMC production per time. The program Dynafit (Biokin, Watertown, Mass.) (Kuzmic, Anal. Biochem., 237, 260-273, 1996) was used to determine Michalen-Menten inhibition model and kinetic parameters that produced the best global fits to the measured velocity versus substrate kinetic data.
These compounds were advanced to detailed kinetic inhibition assays to determine mechanisms of inhibition and inhibition constants. All experiments were performed using two different inhibitor concentrations and a no inhibitor control. Kinetic parameters and inhibition constants were calculated using a generalized Michaelis-Menten model (FIG. 4) and global fitting to all collected velocity versus substrate concentration data (Table 1). […] Further study will be required to determine whether a particular mechanism of inhibition might be advantageous in regard to efficacy against virus replication and/or delay of escape mutants.

[1] = read-out: Inhibition constant Ki2 (binding to enzyme-substrate ES complex)
[2] = read-out: Inhibition constant Ki1 (competitive component, binding to enzyme)
[3] = read-out: Inhibition constant Ki3 (binding to ES2 complex)
[4] = Inhibition constant Ki1 (competitive component, binding to enzyme)

T1 sequence (P29990 1476-1653): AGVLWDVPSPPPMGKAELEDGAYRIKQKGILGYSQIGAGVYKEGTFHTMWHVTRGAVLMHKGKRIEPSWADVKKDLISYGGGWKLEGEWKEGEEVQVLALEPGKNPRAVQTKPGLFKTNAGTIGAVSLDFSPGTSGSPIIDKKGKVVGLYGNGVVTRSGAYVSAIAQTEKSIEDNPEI

Structure (SMILES) | pKi [1] | pKi [2] | further results
NS(=O)(=O)c1cccc(-c2ccc([C@H]3Nc4ccccc4-c4nc5ccccc5n43)o2)c1 [ZINC01032664] | 4.25 |  | 
O=C(Nc1cccc(-c2nnc(Cc3ccc4c(c3)OCO4)o2)c1)Nc1ccc2c(c1)CCC2 [ZINC21359030] | 5.40 |  | 
Cc1nn(-c2ccccc2)nc1C(=O)Nc1nnc(Sc2ccnc3cc(Cl)ccc23)s1 [ZINC08647752] |  | 4.22 | pKi [3]: 4.85
Cc1ccn2c(=O)cc(COc3cc(NC(=O)Nc4ccc5c(c4)OCCO5)ccc3C)nc2c1 [ZINC33068105] | 5.40 | 4.41 | 
Cn1c(=O)c2cc3ccccc3nc2c2c(=O)n(-c3ccccc3)c(=O)n(-c3ccccc3)c21 [ZINC01042004] | 4.55 |  | 
Cc1ccc(-n2ncc3c2CC(C)(C)C[C@@H]3NC(=O)c2cn(C)c3ccccc3c2=O)cc1 [ZINC12702527] | 3.38 | 3.54 | 
O=C(NNC(=NS(=O)(=O)c1ccccc1)NNC(=O)c1cccc(Cl)c1)c1cccc(Cl)c1 [ZINC12339756] |  |  | pKi [3]: 4.19
c1ccc(CSc2nnc3nc4c5ccccc5c5ccccc5c4nn23)cc1 [ZINC03120327] |  |  | pKi [4]: 4.38; pKi (Inhibition constant Ki2 (binding to enzyme-substrate ES complex)): 4.68
O=C1Cc2ccc(F)cc2C[C@@H]1C1=Cc2ccc(F)cc2CC1 [ZINC04321905] |  | 4.07 | 
c1ccc2c(-c3nnc(-c4ccc5nccnc5c4)o3)cccc2c1 [ZINC00156657] | 4.35 | 4.02 | 
O=C1[C@H]2CSC3(C(=O)c4ccccc4C3=O)N2C(=O)[C@H]2CSC3(C(=O)c4ccccc4C3=O)N12 [ZINC03129319] |  |  | pKi [4]: 4.04; pKi (Inhibition constant Ki3 (binding to ES2 complex)): 4.70
Cc1ccc(S(=O)(=O)Nc2ccc(Cn3cnc(-c4nc(-c5cccc(C)c5)no4)c3)cc2)cc1 [ZINC32974777] | 4.68 | 3.97 | 
